Measurements: US20110152267A1, “Compositions and Methods for Treating Hyperproliferative Disorders” (Texas Tech University System, priority 2009, published 2011)

Experiments:
Type in all cases: cell-based, human
[1] = test system: LNCaP prostate adenocarcinoma cell line; test: DIMSCAN cytotoxicity, fenretinide + L-threo-sphinganines 3:1 (Example B16); settings: LNCaP.FGC
Method: (§1) Cytotoxicity Assay—Once again, cytotoxicity is determined using the DIMSCAN assay system (R. Proffitt et al., Cytometry 24, 204-213 (1996); T. Frgala et al., Mol Cancer Ther. 6:886-97, 2007). The system employs digital imaging microscopy to quantify viable cells, which selectively accumulate fluorescein diacetate to become brightly fluorescent. The system is capable of measuring cytotoxicity over a 4-5 log dynamic range by quenching the residual fluorescence of dead and dying cells with eosin Y and quantifying the total fluorescence of viable cells using digital thresholding. Measured fluorescence is directly proportionate to the number of viable cells. A comparison of the total fluorescence of a drug-treated cell population to the fluorescence of a similar number of untreated cells yields a survival fraction. In brief, 2000 to 10,000 cells/well (depending on size and growth rates) are replicate plated into 60 wells of a 96-well tissue culture plate in 0.1 mL of whole medium and allowed to attach overnight. Drug(s) are then added in 0.05 mL of whole medium to the final concentrations indicated. Drugs (fenretinide, and various chain length L-threo-sphinganines) were tested both as single agents and in a 3:1 ratio of fenretinide:sphinganine. C18-L-threo-sphinganine, or “safingol,” was also tested and results shown for reference. There are 12 wells treated per drug concentration. Twelve wells receive drug vehicle-only to the appropriate final concentration and serve as controls for the plate. Cells are incubated for 96 hours at 37° C. in ambient air with 5% CO2. Fluorescein diacetate is then added to each well in 0.05 mL media to a final concentration of 8 microgram/mL. Cells are incubated for a further 15 minutes at 37° C. and 0.03 mL of 0.5% eosin Y is added to each well. Total fluorescence of viable cells is then measured by digital imaging microscopy. Results were graphed as the ratio of the fluoresecence of drug-treated wells to non-drug treated control wells (i.e., Survival Fraction). All tests were performed at least twice. Representative results are shown.
(§2) The Combination Index (CI) is a term to describe mathematical modeling of the pharmacologic effects on cytotoxicity (cell death) of two drugs in combination based. Cytotoxic “synergy” is defined as a cell death affect which is greater than would be expected from a simple product of the single agent cytotoxicities alone (i.e. an “additive” effect). By Chou-Talalay analysis, a CI<0.9 on a Fraction Affected (“Fa”, i.e. fraction of cells killed) indicates synergy, with smaller numbers indicating greater synergy; a CI of 0.9-1.1 signifies an additive or near-additive effect; and a CI>1.1 means the drug combination is antagonistic.
Fenretinide and L-threo-sphinganines tested in human prostate adenocarcinoma (prostate cancer) cell line, LNCaP.

[2] = test system: COG-LL-317 acute lymphoblastic leukemia cell line; test: DIMSCAN cytotoxicity, fenretinide + L-threo-sphinganines 3:1 (Example B20)
Method: as §1, §2
(§3) Fenretinide and L-threo-sphinganines tested in human acute lymphoblastic leukemia (pediatric ALL, a blood cancer) cell lines, COG-LL-317 and MOLT-4.

[3] = test system: MOLT-4 acute lymphoblastic leukemia cell line; test: as above
Method: as §1, §2, §3

[4] = test system: drug-resistant CHLA-90 neuroblastoma cancer cell line; test: DIMSCAN cytotoxicity dose-response with fenretinide (Examples A, FIGS. 1, 7, 12); settings: at one or more doses, +96 hrs
Method: Cytotoxicity Assay: Cytotoxicity in cell lines was determined using a fluorescence-based assay employing digital imaging microscopy (DIMSCAN)(after Fragala, et al, Mol Cancer Ther, 6:886-897, 2007). DIMSCAN quantitates viable cells which selectively accumulate fluorescein diacetate and is capable of measuring cytotoxicity over a 4-5 log dynamic range by quantifying total fluorescence per well (which is proportional to viable, clonogenic cells) after eliminating background fluorescence using digital thresholding and eosin Y quenching. Briefly, cell lines were seeded into 96-well plates in 100 µL of complete culture medium (10-20% serum) per well. Cells were incubated overnight in 2%, 5% or 20% oxygen (room air) prior to addition of drugs in […] volumes of complete medium to various final drug concentrations in replicates of 12 wells per concentration. In assays employing D-threo-PPMP, PPMP was employed at a fixed, minimally-toxic, final concentration of 10 μM in each well. Control wells received ethanol (final concentration=0.12%-0.20%) in complete medium equivalent to the maximum final ethanol concentration of drug-treated wells. Plates were incubated at various oxygen concentrations to simulate physiological hypoxia (i.e., 2% oxygen=typical solid tumor oxygen levels; 5%=bone marrow oxygen levels for leukemias; 20% room air=supraphysiological oxygen for comparison with typical laboratory culture conditions). Plates were assayed at 3-4 days after initiating drug exposure depending on the growth properties of each cell line, to allow for maximum cell death and outgrowth of surviving cells. To measure cytotoxicity, FDA (stock solution of 1 mg/ml in DMSO) was added, in 50 µL of complete medium per well, to a final concentration of 10 µg/ml. The plates were incubated for an additional 15-30 minutes at 37 C and then 30 µL of eosin Y (0.5% in normal saline) was added per well. Total fluorescence of each well was then measured using digital imaging microscopy. […]

[5] = test system: HT-29 colon cancer cell line; test: DIMSCAN cytotoxicity dose-response with fenretinide, with or without D-threo-PPMP (Examples A, FIGS. 4, 10, 15, 21-23); settings: +96 hrs; for C.I. of D-threo-PPMP with fenretinide+L-threo-sphinganine (three drug combination): D-threo-PPMP fixed 10 uM, at most doses; for C.I. (Combination Index) with fenretinide: at one or more doses
Method: (§4) Cytotoxicity Assay: Cytotoxicity in cell lines was determined using a fluorescence-based assay employing digital imaging microscopy (DIMSCAN)(after Fragala, et al, Mol Cancer Ther, 6:886-897, 2007). DIMSCAN quantitates viable cells which selectively accumulate fluorescein diacetate and is capable of measuring cytotoxicity over a 4-5 log dynamic range by quantifying total fluorescence per well (which is proportional to viable, clonogenic cells) after eliminating background fluorescence using digital thresholding and eosin Y quenching. Briefly, cell lines were seeded into 96-well plates in 100 µL of complete culture medium (10-20% serum) per well. Cells were incubated overnight in 2%, 5% or 20% oxygen (room air) prior to addition of drugs in […] volumes of complete medium to various final drug concentrations in replicates of 12 wells per concentration. In assays employing D-threo-PPMP, PPMP was employed at a fixed, minimally-toxic, final concentration of 10 μM in each well. Control wells received ethanol (final concentration=0.12%-0.20%) in complete medium equivalent to the maximum final ethanol concentration of drug-treated wells. Plates were incubated at various oxygen concentrations to simulate physiological hypoxia (i.e., 2% oxygen=typical solid tumor oxygen levels; 5%=bone marrow oxygen levels for leukemias; 20% room air=supraphysiological oxygen for comparison with typical laboratory culture conditions). Plates were assayed at 3-4 days after initiating drug exposure depending on the growth properties of each cell line, to allow for maximum cell death and outgrowth of surviving cells. To measure cytotoxicity, FDA (stock solution of 1 mg/ml in DMSO) was added, in 50 µL of complete medium per well, to a final concentration of 10 µg/ml. The plates were incubated for an additional 15-30 minutes at 37 C and then 30 µL of eosin Y (0.5% in normal saline) was added per well. Total fluorescence of each well was then measured using digital imaging microscopy.
(§5) FIGS. 1 to 26 illustrate the effect (Examples A1 through A26) of the claimed invention and were carried out using the procedures disclosed herein.

[6] = test system: MOLT-4 ALL leukemia cell line; test: DIMSCAN cytotoxicity dose-response with fenretinide, with or without D-threo-PPMP (Examples A, FIGS. 6, 24-26); settings: +96 hrs; for C.I. of D-threo-PPMP with fenretinide+L-threo-sphinganine (three drug combination): 2% oxygen, D-threo-PPMP fixed 10 uM, at most doses
Method: as §4, §5

[7] = test system: CHLA-266 primitive neuroectodermal tumor (PNET) cell line; test: DIMSCAN cytotoxicity, fenretinide + L-threo-sphinganines 3:1 (Example B9); settings: 96 h
Method: as §1, §2
Fenretinide and L-threo-sphinganines tested in human primitive neuroectodermal tumor (PNET) (brain cancer) cell line, CHLA-266.

[8] = 4-HPR 1.5 μM + L-threo-sphinganine 0.5 μM
[9] = 4-HPR 3 μM + L-threo-sphinganine 1 μM
[10] = 4-HPR 6 μM + L-threo-sphinganine 2 μM
[11] = 4-HPR 9 μM + L-threo-sphinganine 3 μM
[12] = 4-HPR 12 μM + L-threo-sphinganine 4 μM

SMILES | CI [1, 8] | Fa [1, 8] | CI [1, 9] | Fa [1, 9] | CI [1, 10] | Fa [1, 10] | CI [1, 11] | Fa [1, 11] | CI [2, 9] | Fa [2, 9] | CI [2, 10] | Fa [2, 10] | CI (Combination Index) [7, 8] | Fa (fraction affected) [7, 8] | CI (Combination Index) [7, 9] | Fa (fraction affected) [7, 9] | CI (Combination Index) [7, 10] | Fa (fraction affected) [7, 10] | CI (Combination Index) [7, 11] | Fa (fraction affected) [7, 11] | other results
CCCCCCCCCCCCCCCC[C@H](O)[C@@H](N)CO [C19, (2S,3S)-2-amino-1,3-nonadecanediol] | 1.0 | 0.697 | 0.5 | 0.980 | 0.5 | 0.999 | 0.2 | 1.000 | 0.8 | 0.9980 | 0.4 | 0.9999 | – | – | – | – | – | – | – | – | Fa [2, 11]: 1.0000; Fa [2, 12]: 1.0000; CI [3, 9]: 1.0; Fa [3, 9]: 0.797; CI [3, 10]: 0.8; Fa [3, 10]: 0.996; CI [3, 11]: 0.8; Fa [3, 11]: 0.999; Fa [3, 12]: 1; C.I. (Combination Index) with fenretinide [4]: < 1; C.I. of D-threo-PPMP with fenretinide+L-threo-sphinganine (three drug combination) ([5]; 20% oxygen): < 1; C.I. (Combination Index) with fenretinide ([5]; oxygen not stated): < 1; C.I. of D-threo-PPMP with fenretinide+L-threo-sphinganine (three drug combination) [6]: < 1
CCCCCCCCCCCCCCC[C@H](O)[C@@H](N)CO [C18, (2S,3S)-2-amino-1,3-octadecanediol, reference compound] | 0.9 | 0.752 | 0.3 | 0.971 | 0.1 | 0.998 | 0.1 | 0.999 | 0.8 | 0.998 | 0.6 | 0.9994 | 0.5 | 0.604 | 0.8 | 0.880 | 1.1 | 0.984 | 1.5 | 0.989 | CI [2, 11]: 0.8; Fa [2, 11]: 0.9996; Fa [2, 12]: 1; CI [3, 9]: 0.9; Fa [3, 9]: 0.829; CI [3, 10]: 0.7; Fa [3, 10]: 0.998; CI [3, 11]: 0.8; Fa [3, 11]: 0.999; Fa [3, 12]: 1
CCCCCCCCCCC[C@H](O)[C@@H](N)CO [C14] | – | – | – | – | – | – | – | – | – | – | – | – | 0.6 | 0.342 | 0.9 | 0.739 | 1.1 | 0.968 | 1.6 | 0.974 | –
CCCCCCCCCCCCCCCCC[C@H](O)[C@@H](N)CO [C20, (2S,3S)-2-amino-1,3-icosanediol] | 0.7 | 0.812 | 0.4 | 0.987 | 0.7 | 0.993 | 0.8 | 0.999 | 0.2 | 0.9999 | 0.3 | 1 | – | – | – | – | – | – | – | – | Fa [2, 11]: 1; Fa [2, 12]: 1; CI [3, 9]: 0.9; Fa [3, 9]: 0.878; CI [3, 10]: 0.8; Fa [3, 10]: 0.996; CI [3, 11]: 0.8; Fa [3, 11]: 0.999; Fa [3, 12]: 1; C.I. (Combination Index) with fenretinide [4]: < 1; C.I. of D-threo-PPMP with fenretinide+L-threo-sphinganine (three drug combination) ([5]; 2% oxygen): < 1; C.I. (Combination Index) with fenretinide ([5]; oxygen not stated): < 1; C.I. of D-threo-PPMP with fenretinide+L-threo-sphinganine (three drug combination) [6]: < 1
CCCCCCCCCCCC[C@H](O)[C@@H](N)CO [C15] | – | – | – | – | – | – | – | – | – | – | – | – | 0.5 | 0.657 | 1.0 | 0.701 | 1.2 | 0.906 | 0.4 | 0.999 | –
CCCCCCCCC[C@H](O)[C@@H](N)CO [C12] | 0.5 | 0.870 | 0.3 | 0.982 | 0.4 | 0.996 | 0.4 | 0.999 | – | – | – | – | 0.6 | 0.464 | 0.6 | 0.788 | 0.7 | 0.951 | 1.0 | 0.965 | –
CCCCCCCCCCCCCC[C@H](O)[C@@H](N)CO [C17, (2S,3S)-2-amino-1,3-heptadecanediol] | 0.3 | 0.887 | 0.3 | 0.967 | 0.2 | 0.991 | 0.1 | 0.999 | 0.8 | 0.993 | 1.3 | 0.9993 | 0.5 | 0.502 | 0.5 | 0.913 | 0.5 | 0.990 | 0.7 | 0.989 | CI [2, 11]: 0.5; Fa [2, 11]: 0.9999; Fa [2, 12]: 1; CI [3, 9]: 1.0; Fa [3, 9]: 0.807; CI [3, 10]: 0.7; Fa [3, 10]: 0.998; CI [3, 11]: 0.8; Fa [3, 11]: 0.999; Fa [3, 12]: 1; C.I. (Combination Index) with fenretinide [4]: < 1; C.I. (Combination Index) with fenretinide ([5]; 2% oxygen): < 1; C.I. of D-threo-PPMP with fenretinide+L-threo-sphinganine (three drug combination) ([5]; 20% oxygen): < 1; C.I. of D-threo-PPMP with fenretinide+L-threo-sphinganine (three drug combination) [6]: < 1; C.I. (Combination Index) with fenretinide ([6]; at one or more doses): < 1
